According to US6914045B2, “Glycopeptide antibiotics” (Wyeth Holdings Corporation, priority 2001, dated 2005):
In brackets after ≈: the same amount, converted by molar mass.

Assays:
Escherichia coli = assay: in vitro antibacterial evaluation, MIC by broth dilution; type: cell-based; conditions: 18 hours at 35° C.
Summary of the method: (§1)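 Read-out: the lowest concentration at which the test strain fails to grow. Serial dilutions (64-0.06 μg/mL) in Muller-Hinton II […], 5×10^5 CFU/mL inoculum, NCCLS M7-A2 procedure.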

Streptococcus sp. = assay: as above; type: cell-based; conditions: broth dilution, 18 hours at 35° C.
Summary of the method: as §1

Enterococcus sp. = assay: as above; type: cell-based; conditions: broth dilution, 18 hours at 35° C.
Summary of the method: as §1

Staphylococcus sp. = assay: as above; type: cell-based; conditions: broth dilution, 18 hours at 35° C.
Summary of the method: as §1

[1] = system: Staphylococcus aureus-SMITH (GC 4543); assay: acute lethal infection in mice; type: in vivo; conditions: acute lethal infection, female CD-1 mice, intraperitoneal challenge, intravenous 30 min. after infection, 7 day survival
Summary of the method: (§2)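 Survival at 7 days, pooled from three independent tests, yields ED50 values. Treatment is intravenous, 30 min after ip infection of female CD-1 mice, using an inoculum lethal to untreated controls within 24-48 hr.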

[2] = system: Enterococcus faecalis (GC 6189); assay: acute lethal infection in mice; type: in vivo; conditions: female CD-1 mice, intraperitoneal challenge, intravenous 30 min. after infection, 7 day survival
Summary of the method: as §2

CC(c1ccccc1)C1NC(=O)CNC(=O)C(CO)NC(=O)C(C(O)C2CNC(=N)N2C2OC(CO)C(O)C(O)C2O)NC(=O)C(C(O)C2CNC(=N)N2)NC(=O)C(Cc2ccc(OC3OC(CO)C(OC4OC5COC(CC6CCN(C(=O)OCc7ccccc7)CC6)OC5C(O)C4O)C(O)C3O)cc2)NC1=O (stereo not drawn) [Example 113, Cyclo[glycyl-β-methylphenylalanyl-O-[4-O-[4,6-O-[2-[1-[(phenylmethoxy)carbonyl]piperidin-4-yl]ethylidene]hexopyranosyl]hexopyranosyl]tyrosyl-3-(2-iminoimidazolidin-4-yl)seryl-3-(3-hexopyranosyl-2-iminoimidazolidin-4-yl)serylseryl]]
MIC Escherichia coli (ATCC 25922) (Escherichia coli; strain ATCC 25922): 32 µg/mL (≈ 20.8 µM) | MIC Escherichia coli (GC 4559) (Escherichia coli; strain GC 4559): 32 µg/mL (≈ 20.8 µM) | MIC Escherichia coli (GC 4560) (Escherichia coli; strain GC 4560): 1 µg/mL (≈ 0.65 µM) | MIC Streptococcus agalactiae (GC 4564) (Streptococcus sp.; Streptococcus agalactiae (GC 4564)): 0.12 µg/mL (≈ 0.078 µM) | MIC Streptococcus pneumoniae (ATCC 6301) (Streptococcus sp.; Streptococcus pneumoniae (ATCC 6301)): <0.06 µg/mL | MIC Streptococcus pneumoniae (GC 1894) (Streptococcus sp.; Streptococcus pneumoniae (GC 1894)): <0.06 µg/mL | MIC Streptococcus pneumoniae (GC 4565) (Streptococcus sp.; Streptococcus pneumoniae (GC 4565)): <0.06 µg/mL | MIC Streptococcus pyogenes (GC 4563) (Streptococcus sp.; Streptococcus pyogenes (GC 4563)): <0.06 µg/mL | MIC Streptococcus pneumoniae (ATCC 6301) (Streptococcus sp.; strain ATCC 6301): <0.06 µg/mL | MIC Streptococcus pneumoniae (GC 1894) (Streptococcus sp.; strain GC 1894): <0.06 µg/mL | MIC Streptococcus pyogenes (GC 4563) (Streptococcus sp.; strain GC 4563): <0.06 µg/mL | MIC Streptococcus agalactiae (GC 4564) (Streptococcus sp.; strain GC 4564): 0.12 µg/mL (≈ 0.078 µM) | MIC Streptococcus pneumoniae (GC 4565) (Streptococcus sp.; strain GC 4565): <0.06 µg/mL | MIC Enterococcus avium (GC 4558) (Enterococcus sp.; Enterococcus avium (GC 4558)): 2 µg/mL (≈ 1.3 µM) | MIC Enterococcus faecalis (ATCC 29212) (Enterococcus sp.; Enterococcus faecalis (ATCC 29212)): 2 µg/mL (≈ 1.3 µM) | MIC Enterococcus faecalis (GC 2242) (Enterococcus sp.; Enterococcus faecalis (GC 2242)): 4 µg/mL (≈ 2.6 µM) | MIC Enterococcus faecalis (GC 2691) (Enterococcus sp.; Enterococcus faecalis (GC 2691)): 4 µg/mL (≈ 2.6 µM) | MIC Enterococcus faecalis (GC 3059) (Enterococcus sp.; Enterococcus faecalis (GC 3059)): 2 µg/mL (≈ 1.3 µM) | MIC Enterococcus faecalis (GC 4552) (Enterococcus sp.; Enterococcus faecalis (GC 4552)): 2 µg/mL (≈ 1.3 µM) | MIC Enterococcus faecalis (GC 4553) (Enterococcus sp.; Enterococcus faecalis (GC 4553)): 2 µg/mL (≈ 1.3 µM) | MIC Enterococcus faecalis (GC 4554) (Enterococcus sp.; Enterococcus faecalis (GC 4554)): 2 µg/mL (≈ 1.3 µM) | MIC Enterococcus faecalis (GC 6189) (Enterococcus sp.; Enterococcus faecalis (GC 6189)): 2 µg/mL (≈ 1.3 µM) | MIC Enterococcus faecium (GC 2243) (Enterococcus sp.; Enterococcus faecium (GC 2243)): 2 µg/mL (≈ 1.3 µM) | MIC Enterococcus faecium (GC 4556) (Enterococcus sp.; Enterococcus faecium (GC 4556)): 2 µg/mL (≈ 1.3 µM) | MIC Enterococcus faecium (GC 4557) (Enterococcus sp.; Enterococcus faecium (GC 4557)): 2 µg/mL (≈ 1.3 µM) | MIC Enterococcus faecalis (ATCC 29212) (Enterococcus sp.; strain ATCC 29212): 2 µg/mL (≈ 1.3 µM) | MIC Enterococcus faecalis (GC 2242) (Enterococcus sp.; strain GC 2242): 4 µg/mL (≈ 2.6 µM) | MIC Enterococcus faecium (GC 2243) (Enterococcus sp.; strain GC 2243): 2 µg/mL (≈ 1.3 µM) | MIC Enterococcus faecalis (GC 2691) (Enterococcus sp.; strain GC 2691): 4 µg/mL (≈ 2.6 µM) | MIC Enterococcus faecalis (GC 3059) (Enterococcus sp.; strain GC 3059): 2 µg/mL (≈ 1.3 µM) | MIC Enterococcus faecalis (GC 4552) (Enterococcus sp.; strain GC 4552): 2 µg/mL (≈ 1.3 µM) | MIC Enterococcus faecalis (GC 4553) (Enterococcus sp.; strain GC 4553): 2 µg/mL (≈ 1.3 µM) | MIC Enterococcus faecalis (GC 4554) (Enterococcus sp.; strain GC 4554): 2 µg/mL (≈ 1.3 µM) | MIC Enterococcus faecium (GC 4556) (Enterococcus sp.; strain GC 4556): 2 µg/mL (≈ 1.3 µM) | MIC Enterococcus faecium (GC 4557) (Enterococcus sp.; strain GC 4557): 2 µg/mL (≈ 1.3 µM) | MIC Enterococcus avium (GC 4558) (Enterococcus sp.; strain GC 4558): 2 µg/mL (≈ 1.3 µM) | MIC Enterococcus faecalis (GC 6189) (Enterococcus sp.; strain GC 6189): 2 µg/mL (≈ 1.3 µM) | MIC Coagulase Negative Staphylococcus (GC 4547) (Staphylococcus sp.): 1 µg/mL (≈ 0.65 µM) | MIC Coagulase Negative Staphylococcus (GC 4548) (Staphylococcus sp.): 0.5 µg/mL (≈ 0.325 µM) | MIC Coagulase Negative Staphylococcus (GC 4549) (Staphylococcus sp.): 1 µg/mL (≈ 0.65 µM) | MIC Coagulase Negative Staphylococcus (GC 4551) (Staphylococcus sp.): 1 µg/mL (≈ 0.65 µM) | MIC Coagulase Negative Staphylococcus (GC 6257) (Staphylococcus sp.): 0.5 µg/mL (≈ 0.325 µM) | MIC Staphylococcus aureus (ATCC 29213) (Staphylococcus sp.): 1 µg/mL (≈ 0.65 µM) | MIC Staphylococcus aureus (GC 1131) (Staphylococcus sp.): 2 µg/mL (≈ 1.3 µM) | MIC Staphylococcus aureus (GC 3051) (Staphylococcus sp.): 1 µg/mL (≈ 0.65 µM) | MIC Staphylococcus aureus (GC 3053) (Staphylococcus sp.): 1 µg/mL (≈ 0.65 µM) | MIC Staphylococcus aureus (GC 4541) (Staphylococcus sp.): 1 µg/mL (≈ 0.65 µM) | MIC Staphylococcus aureus (GC 4542) (Staphylococcus sp.): 1 µg/mL (≈ 0.65 µM) | MIC Staphylococcus aureus (GC 4544) (Staphylococcus sp.): 2 µg/mL (≈ 1.3 µM) | MIC Staphylococcus aureus (GC 4545) (Staphylococcus sp.): 1 µg/mL (≈ 0.65 µM) | MIC Staphylococcus aureus-SMITH (GC 4543) (Staphylococcus sp.): 1 µg/mL (≈ 0.65 µM) | MIC Staphylococcus haemolyticus (GC 4546) (Staphylococcus sp.): 1 µg/mL (≈ 0.65 µM) | MIC Staphylococcus aureus (GC 1131) (Staphylococcus sp.; inoculum 5×10^5 CFU/mL, strain GC 1131): 2 µg/mL (≈ 1.3 µM) | MIC Staphylococcus aureus (ATCC 29213) (Staphylococcus sp.; strain ATCC 29213): 1 µg/mL (≈ 0.65 µM) | MIC Staphylococcus aureus (GC 3051) (Staphylococcus sp.; strain GC 3051): 1 µg/mL (≈ 0.65 µM) | MIC Staphylococcus aureus (GC 3053) (Staphylococcus sp.; strain GC 3053): 1 µg/mL (≈ 0.65 µM) | MIC Staphylococcus aureus (GC 4541) (Staphylococcus sp.; strain GC 4541): 1 µg/mL (≈ 0.65 µM) | MIC Staphylococcus aureus (GC 4542) (Staphylococcus sp.; strain GC 4542): 1 µg/mL (≈ 0.65 µM) | MIC Staphylococcus aureus (GC 4544) (Staphylococcus sp.; strain GC 4544): 2 µg/mL (≈ 1.3 µM) | MIC Staphylococcus aureus (GC 4545) (Staphylococcus sp.; strain GC 4545): 1 µg/mL (≈ 0.65 µM) | MIC Staphylococcus haemolyticus (GC 4546) (Staphylococcus sp.; strain GC 4546): 1 µg/mL (≈ 0.65 µM) | MIC Coagulase Negative Staphylococcus (GC 4547) (Staphylococcus sp.; strain GC 4547): 1 µg/mL (≈ 0.65 µM) | MIC Coagulase Negative Staphylococcus (GC 4548) (Staphylococcus sp.; strain GC 4548): 0.5 µg/mL (≈ 0.325 µM) | MIC Coagulase Negative Staphylococcus (GC 4549) (Staphylococcus sp.; strain GC 4549): 1 µg/mL (≈ 0.65 µM) | MIC Coagulase Negative Staphylococcus (GC 4551) (Staphylococcus sp.; strain GC 4551): 1 µg/mL (≈ 0.65 µM) | MIC Coagulase Negative Staphylococcus (GC 6257) (Staphylococcus sp.; strain GC 6257): 0.5 µg/mL (≈ 0.325 µM) | MIC Staphylococcus aureus-SMITH (GC 4543) (Staphylococcus sp.; strain SMITH GC 4543): 1 µg/mL (≈ 0.65 µM) | median effective dose (ED50), Staphylococcus aureus-SMITH (GC 4543) [1]: 0.26 mg/kg | median effective dose (ED50), Enterococcus faecalis (GC 6189) [2]: 1.04 mg/kg
